From PubChem BioAssay (NCI)
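Cells were grown in 96-well plates and exposed to each compound for 48 hours at five concentrations; endpoints were interpolated linearly between bracketing concentrations, or set to the highest concentration if not reached. At the GI50, growth is halved. TGI marks complete inhibition of growth.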

What was measured:
Test in all cases: DTP human tumour cell line panel, 48 h
SR leukemia = system: SR leukemia
A549 NSCLC = system: A549 NSCLC
SK-MEL-2 melanoma = system: SK-MEL-2 melanoma
K-562 leukemia = system: K-562 leukemia
HCT-15 colon = system: HCT-15 colon
COLO 205 colon = system: COLO 205 colon
A498 renal = system: A498 renal
UACC-62 melanoma = system: UACC-62 melanoma
SNB-75 CNS = system: SNB-75 CNS
NCI/ADR-RES ovarian = system: NCI/ADR-RES ovarian

| Structure (SMILES) | GI50 (SR leukemia) | TGI (SR leukemia) | GI50 (A549 NSCLC) | TGI (A549 NSCLC) | GI50 (SK-MEL-2 melanoma) | TGI (SK-MEL-2 melanoma) | GI50 (K-562 leukemia) | TGI (K-562 leukemia) | GI50 (HCT-15 colon) | TGI (HCT-15 colon) | GI50 (COLO 205 colon) | TGI (COLO 205 colon) | GI50 (A498 renal) | TGI (A498 renal) | GI50 (UACC-62 melanoma) | TGI (UACC-62 melanoma) | GI50 (SNB-75 CNS) | TGI (SNB-75 CNS) | GI50 (NCI/ADR-RES ovarian) | TGI (NCI/ADR-RES ovarian) |
| --- | --- | --- | --- | --- | --- | --- | --- | --- | --- | --- | --- | --- | --- | --- | --- | --- | --- | --- | --- | --- |
| CCCCCCC[CH2][Sn]1([CH2]CCCCCCC)[O]C(=O)c2cccnc2[S]1 | > 100 µM | > 100 µM | > 100 µM | > 100 µM | > 100 µM | > 100 µM | > 100 µM | > 100 µM | > 100 µM | > 100 µM | > 100 µM | > 100 µM | > 100 µM | > 100 µM | > 100 µM | > 100 µM | > 100 µM | > 100 µM |  |  |
| O=C(NCCCCN=c1cccccc1NCCCCNC(=O)OCc1ccccc1)OCc1ccccc1 |  |  |  | 74.6 µM |  | 36.9 µM |  | 33.4 µM |  | 23.2 µM |  |  |  |  |  | 37.5 µM |  | 39.6 µM |  |  |
| COc1ccc2oc(-c3cccnc3)cc(=O)c2c1 |  |  |  |  |  | > 100 µM |  | > 100 µM |  |  |  | > 100 µM |  | > 100 µM |  | > 100 µM |  | > 100 µM |  |  |
| COC1C(O)=C2C(=O)O/C(C)=C/C=C/C=C/C=C\CC(c3ccccc3)NC(=O)\C=C/C=C\C=C\C=C\[C@@]2(C)[C@@H]1O (stereo partly specified) |  | 0.165 µM |  | 0.0445 µM |  | 0.15 µM |  | 0.158 µM |  | 0.0834 µM |  | 0.0564 µM |  | 0.318 µM |  | 0.551 µM |  | 0.0503 µM |  |  |
| CCOc1ccc(N2C(=O)/C(=C/c3ccc(N(CCC#N)CCC#N)cc3)N=C2c2cc([N+](=O)[O-])ccc2Cl)cc1 |  |  |  | > 100 µM |  | > 100 µM |  | 81.2 µM |  | > 100 µM |  | 44.1 µM |  | > 100 µM |  | 83.3 µM |  | > 100 µM |  |  |
| CCOC(=O)C1(c2ccccc2)CCC(=O)CC1 |  |  |  | > 100 µM |  | > 100 µM |  | > 100 µM |  | > 100 µM |  | > 100 µM |  | > 100 µM |  | > 100 µM |  | > 100 µM |  |  |
| Cc1ccc(S(=O)(=O)N/N=C/c2oc(-c3ccncc3)c(-c3ccncc3)c2[N+](=O)[O-])cc1 |  | > 100 µM |  | > 100 µM |  | > 100 µM |  | > 100 µM |  | > 100 µM |  | > 100 µM |  | > 100 µM |  | > 100 µM |  | > 100 µM |  |  |
| C[C@H]1NC(=O)C2CCCCN2C(=O)CN(C)C(=O)CNC(=O)C2CCCCN2C(=O)[C@@H](NC(=O)c2nc3ccccc3cc2O)[C@@H](C)NC(=O)C2CCCCN2C(=O)CN(C)C(=O)CNC(=O)[C@@H]2CCCCN2C(=O)C1NC(=O)c1nc2ccccc2cc1O (stereo partly specified) |  |  |  | > 100 µM |  | 0.23 µM |  | 1.1 µM |  | > 100 µM |  | 0.641 µM |  |  |  | 0.105 µM |  | 0.39 µM |  |  |
| O=C(O)[C@H](NS(=O)(=O)c1ccc2ccccc2c1)c1ccccc1 |  |  |  |  |  | > 100 µM |  | > 100 µM |  | > 100 µM |  | > 100 µM |  | > 100 µM |  | > 100 µM |  | > 100 µM |  |  |
| COc1cccc2c1C(=O)c1c(O)c3c(c(O)c1C2=O)CC(O)(/C(C)=N/NC(=O)CCC(=O)N/N=C(\C)C1(O)Cc2c(O)c4c(c(O)c2C(OC2CC(N)C(O)C(C)O2)C1)C(=O)c1c(OC)cccc1C4=O)CC3OC1CC(N)C(O)C(C)O1 (stereo unspecified) |  |  | 0.414 µM | 1.81 µM | 0.111 µM | 0.343 µM | 0.341 µM | 7.69 µM | 3.51 µM | > 50 µM | 0.157 µM | 0.795 µM | 0.161 µM | 0.939 µM |  |  | 0.222 µM | 2.01 µM | 13.5 µM | > 50 µM |
| NS(=O)(=O)c1ccc(N(/C=C/C(=O)C(F)(F)F)CC(=O)c2ccc(Cl)cc2)cc1 |  |  | 49.7 µM | > 100 µM | 38.1 µM | > 100 µM | 33.5 µM | 93.6 µM | 35.5 µM | > 100 µM | 32.2 µM | > 100 µM | > 100 µM | > 100 µM | 27.7 µM | 91.6 µM |  |  | 47.6 µM | > 100 µM |
| CCOc1ccc2c(c1)[n+]([O-])c(-c1ccccc1Cl)c(N)[n+]2[O-] |  | > 100 µM |  | > 100 µM |  | > 100 µM |  | > 100 µM |  |  |  | > 100 µM |  | > 100 µM |  |  |  | > 100 µM |  |  |
| COc1ccncc1C#Cc1cncc(C(=O)Nc2ccc(CN3CCN(C)CC3)c(C(F)(F)F)c2)c1 |  |  | 27.4 µM | > 100 µM | 13.3 µM | 48.3 µM | 0.0229 µM | > 100 µM | 19.8 µM | > 100 µM | 11.2 µM | 64 µM | 17.4 µM | 79.5 µM | 13.6 µM | > 100 µM | 25.9 µM | > 100 µM | 33.4 µM | > 100 µM |
| Cc1ccc(NC(=O)C2C(=O)N(c3ccc(C)c(C)c3)C(=O)C2N=N)cc1C (stereo unspecified) |  |  |  | > 100 µM |  | > 100 µM |  |  |  | > 100 µM |  | > 100 µM |  | > 100 µM |  | > 100 µM |  | > 100 µM |  |  |
| O=C1[C@@H]2C3c4ccccc4C([C@@H]2C(=O)N1c1ccccc1)S3(=O)=O |  | > 100 µM |  |  |  | > 100 µM |  | > 100 µM |  | > 100 µM |  | > 100 µM |  |  |  | > 100 µM |  | > 100 µM |  |  |
| COC(=O)[C@]1(C)CCCC2(C)C1CC[C@H]1C=C(C)[C@H]3CCC12C3 (stereo partly specified) |  | > 100 µM |  | > 100 µM |  |  |  | > 100 µM |  | > 100 µM |  | > 100 µM |  |  |  | > 100 µM |  | > 100 µM |  |  |
| COc1cccc(/C=N/[N-]C(=O)c2ccncc2)c1[O-].[Cu+2].[OH3+] | 26.9 µM | 92 µM | 53.7 µM | > 100 µM | > 100 µM | > 100 µM | 33.6 µM | > 100 µM | 62.8 µM | > 100 µM | 78.4 µM | > 100 µM | 58.4 µM | > 100 µM | 28.9 µM | > 100 µM | 28.6 µM | > 100 µM |  |  |
| O=C(c1ccc(Cl)cc1)c1cnc(Nc2ccccc2Cl)s1 |  | > 100 µM |  | 60.3 µM |  | 30.7 µM |  | > 100 µM |  | 51.6 µM |  | > 100 µM |  | 27.3 µM |  | 66.4 µM |  | 39.2 µM |  |  |
| O=C1CC(C[C@H](O)C2CCCCC2O)CC(=O)N1Cc1ccccc1 (stereo partly specified) |  | > 100 µM |  | > 100 µM |  | > 100 µM |  | > 100 µM |  |  |  | > 100 µM |  | > 100 µM |  | > 100 µM |  | > 100 µM |  |  |
